Source: patent US12428377B2, “Sodium-hydrogen exchanger 3 inhibitor compounds” (Eli Lilly and Company, priority 2019, dated 2025)

Tested on: male Sprague Dawley rats
Assay: Radiolabeled phosphate absorption in rats, Studies 1-3 (plasma radioactivity)
Assay type: in vivo, rat
Settings: Study 2, rats; for Absorption (vs. vehicle control): mean ± SEM
Protocol: Effect of Example 2 in Combination with an NPT2b Inhibitor (Compound A) on Phosphate Absorption in Rats
NPT2b inhibitor dosing solutions: Compound A and poly-1-vinylpyrrolidone-co-vinyl acetate (PVP-VA, Sigma-Aldrich) are weighed into a bottle at a ratio of 30% Compound A and 70% PVP-VA by weight. A clear yellow solution is prepared by diluting the mixture in MeOH followed by the addition of 2 mol NaOH per mol Compound A using 5 N NaOH. The solution is spray dried by a stream of hot nitrogen and the solid dispersion powder is collected and then further dried in a vacuum oven. Doses for the sprayed dried solid dispersion (SDD) are expressed as active pharmaceutical ingredient (API) throughout.
To make the Compound A dosing solution, an appropriate amount of Compound A SDD is weighed in a vial and dissolved in water (10 mL/kg dosing volume). […] The subsequent solutions for lower doses are prepared by serial dilutions with water. PVP-VA at 7 mg/mL is used as a vehicle control.
NHE3 inhibitor dosing solutions: To make the Example 2 dosing solution, an appropriate amount of the compound is weighed in a vial and dissolved in 1% HEC (10 mL/kg dosing volume). […] The subsequent solutions for lower doses are prepared by serial dilutions with HEC.
To make the radiolabeled phosphate dosing solution, a 16.25 mM Na2HPO4, 0.9% saline, pH 7.4 solution is prepared and filtered using a sterile, 0.22 μm, polyethersulfone, Millex-GP Syringe Filter Unit (EMD Millipore). Radioactive phosphate (H3^33PO4, Perkin Elmer) is added at about 2.5 μCi per mL of the solution and filtered again.
Three separate studies are performed. In these studies, male Sprague Dawley rats, are randomized into groups with approximately equal mean body weights. Following an overnight fast, all the animals are dosed at 10 mL/kg with either vehicle, varying doses of Compound A (Study 1), varying doses of Example 2 (Study 2) or 1.2 mg/kg Compound A and varying doses of Example 2 (Study 3). 15 min later, radiolabeled phosphate is orally dosed in a 2 mL volume. 15 min later, blood is collected and plasma is prepared. Radioactivity (dpm) in 50 μL plasma is measured by scintillation counting and is used to calculate phosphate absorption. The results are normalized with the vehicle controls representing 100% absorption. The curves are fitted with nonlinear regression with variable slope using GraphPad Prism 6 to calculate the ED50 and Emax given in Table 7. […] No curve fit was performed for Compound A alone in Study 1.

**Q.** What does the source list for `CN1Cc2c(Cl)cc(Cl)cc2[C@H](c2cccc(S(=O)(=O)NCCOCCOCCN/C(=N\C(N)=O)NCCCCN/C(=N/C(N)=O)NCCOCCOCCNS(=O)(=O)c3cccc([C@@H]4CN(C)Cc5c(Cl)cc(Cl)cc54)c3)c2)C1.Cl.Cl` [Example 2, [[4-[[N′-Carbamoyl-N-[2-[2-[2-[[3-[(4S)-6,8-dichloro-2-methyl-3,4-dihydro-1H-isoquinolin-4-yl]phenyl]sulfonylamino]ethoxy]ethoxy]ethyl]carbamimidoyl]amino]butylamino]-[2-[2-[2-[[3-[(4S)-6,8-dichloro-2-methyl-3,4-dihydro-1H-isoquinolin-4-yl]phenyl]sulfonylamino]ethoxy]ethoxy]ethylamino]methylene]urea dihydrochloride]?
**A.** ED50 (Rattus norvegicus, Example 2 alone): 0.041 mg/kg; Absorption (vs. vehicle control) (Example 2 0.001 mg/kg): 97.16 ± 20.76%; Absorption (vs. vehicle control) (Example 2 0.003 mg/kg): 100.81 ± 20.74%; Absorption (vs. vehicle control) (Example 2 0.01 mg/kg): 75.15 ± 15.52%; Absorption (vs. vehicle control) (Example 2 0.03 mg/kg): 83.17 ± 17.99%; Absorption (vs. vehicle control) (Example 2 0.1 mg/kg): 57.29 ± 11.20%; Absorption (vs. vehicle control) (Example 2 0.3 mg/kg): 71.09 ± 13.98%; Absorption (vs. vehicle control) (Example 2 1 mg/kg): 44.29 ± 9.09%; Absorption (vs. vehicle control) (Example 2 3 mg/kg): 60.04 ± 12.00%; Absorption (vs. vehicle control) (Example 2 10 mg/kg): 63.47 ± 8.39%; % Inhibition at the highest dose (phosphate absorption) (Example 2 highest dose tested (10 mg/kg), dihydrochloride): 37%
